This is an account of results in PMC7883873, “Discovery of New Catalytic Topoisomerase II Inhibitors for Anticancer Therapeutics” (Frontiers in Oncology, 2021).

Data set [1] has as its target T1, TOP2A (Homo sapiens, UniProt P11388). Kind of data set: Relaxation and K-DNA decatenation assays of candidates and T60 derivatives (SAR). It is filed as biochemical. On the set-up: full-length human TOP2A and TOP2B protein (TopoGEN and Inspiralis respectively); purchased TopoGEN TG1001 (human TOP2 assay kit). The note with it: compared with T60. Here is the method: (§1) The human TOP2 assay kit (#TG1001, TopoGEN, Buena Vista, CO) and TOP2B (HTB205, Inspiralis, UK) were used for K-DNA decatenation assays. […] The reaction was incubated at 37C for 2 h after which 4 µl stop solution (5× buffer is 5% Sarkosyl, 0.125% bromophenol blue, 25% glycerol) was added. The reaction was resolved by electrophoresis on a 0.8% agarose gel at 60 V and stained with 0.5 µg/ml ethidium bromide for 15 min. DNA bands were visualized using a gel imager (Gel Doc™ EZ System) and quantified using the Image Studio™ Lite Quantification Software.
(§2) The human TOP2A and TOP2B were used to perform DNA relaxation assays. […] The reaction was incubated at 37C for 2 h and stopped by adding 2 µl of 10% SDS and 1 µl of 250 mM of EDTA, followed by the addition of 50 µg/ml of proteinase K at 45 C for 1 h. The reaction was then resolved by electrophoresis on a 1% agarose gel at 80 V and stained with 0.5 µg/ml ethidium bromide for 15 min. DNA bands were visualized using a gel imager (Gel Doc™ EZ System) and quantified using the Image Studio™ Lite Quantification Software.

For another data set, the system named is K562 xenografts. In words: K562 xenografts, intra-tumor polymeric paste. It is filed as in vivo, nude mice (Nu/Nu). The note with it: single 30 µl paste, 1% T60 or T633, 0.3% etoposide. Here is the method:
The polymeric paste was prepared with 50% poly-DL-lactide-coglycolide (PLGA) and 50% PEG 300 (w/w) as we have reported ([57]). […] The density of the paste was determined to be 1.2 g/ml ( ± 3%). One million K562 cells were inoculated subcutaneously in bilateral flanks of nude mice (Nu/Nu). […] Tumor volumes were measured every three days and were calculated by length × width × depth × 0.5236. Mice were euthanized when tumor volumes reached 15% of body weight or weight loss >20% occurred. The remaining mice were euthanized after the control group was euthanized. All animal procedures were under the guidelines of the Canadian Council on Animal Care and were approved by the UBC Animal Care Committee (# A19-0256).

Another data set addresses T2, TOP2A (431–1193) (Homo sapiens, UniProt P11388).
T2 construct: was incorporated with TOP2A (431–1193); made in house; host or cells: Escherichia coli BL21 co-expressing biotin ligase
Kind of data set: Bio-Layer Interferometry (BLI) assay. It is filed as binding. As to the method: BLI assays were performed as we previously reported ([33]). The direct and reversible interactions between small molecules and TOP2 protein were quantified by BLI using OctetRED (ForteBio, Bohemia, NY). Human TOP2A (431–1,193) was produced in situ with AviTag technology. The AviTag sequence ([…]) followed by a six-residue glycine serine linker (GSGSGS) was incorporated with TOP2A (431–1193). Escherichia coli BL21 containing both biotin ligase and TOP2A (431–1193) vectors were induced with 0.5 mM isopropyl-β-D-thiogalactopyranoside (IPTG) and biotin at 16C overnight. The bacteria were then lysed by sonication, and the resulting lysate was purified by immobilized metal ion affinity chromatography (IMAC) with nickel nitrilotriacetic acid (NiNTA) resin and cation-exchange chromatography (HiTrap SP). Purified TOP2A (431–1193) (50 μg/ml) was bound to the super-streptavidin sensors over 50 min at room temperature. The sensor was kept in an assay buffer [20 mM N-2-hydroxyethylpiperazine-N0 -2-ethanesulfonic acid (HEPES), 150 mM NaCl, 500 μM tris(2-carboxyethyl) phosphine (TCEP), and 1% dimethylsulfoxide (DMSO)], when small molecules were added. After 200 s, a wash buffer was used to flush the sensor plate for 100 s. BLI signal was recorded throughout the 300 s following the manufacture’s instruction from OctetRED (ForteBio, Bohemia, NY).
(In general: Biolayer interferometry detects binding as a change in optical thickness at a sensor tip.)

The target of the next data set is TOP2B (Homo sapiens, UniProt Q02880). Kind of data set: DNA cleavage assay. Type of data set: biochemical. On the set-up: full-length human TOP2A and TOP2B protein (TopoGEN and Inspiralis respectively); purchased Inspiralis HTB205. The note with it: 200 µM, buffer without ATP. Here is the method: (§3) The reactions were incubated in 37C for 30 min and stopped by adding 2 µl of 10% SDS and 1 µl of 250 mM of EDTA, followed by the addition of 50 µg/ml of proteinase K at 45C for 30 min. The reaction was then resolved by electrophoresis on a 1% agarose gel containing […] ethidium bromide in TAE buffer at 60 V. DNA bands were visualized using a gel imager (Gel Doc™ EZ System) and quantified by using the Image Studio™ Lite Quantification Software.
Chain of TOP2B (Q02880 whole entry): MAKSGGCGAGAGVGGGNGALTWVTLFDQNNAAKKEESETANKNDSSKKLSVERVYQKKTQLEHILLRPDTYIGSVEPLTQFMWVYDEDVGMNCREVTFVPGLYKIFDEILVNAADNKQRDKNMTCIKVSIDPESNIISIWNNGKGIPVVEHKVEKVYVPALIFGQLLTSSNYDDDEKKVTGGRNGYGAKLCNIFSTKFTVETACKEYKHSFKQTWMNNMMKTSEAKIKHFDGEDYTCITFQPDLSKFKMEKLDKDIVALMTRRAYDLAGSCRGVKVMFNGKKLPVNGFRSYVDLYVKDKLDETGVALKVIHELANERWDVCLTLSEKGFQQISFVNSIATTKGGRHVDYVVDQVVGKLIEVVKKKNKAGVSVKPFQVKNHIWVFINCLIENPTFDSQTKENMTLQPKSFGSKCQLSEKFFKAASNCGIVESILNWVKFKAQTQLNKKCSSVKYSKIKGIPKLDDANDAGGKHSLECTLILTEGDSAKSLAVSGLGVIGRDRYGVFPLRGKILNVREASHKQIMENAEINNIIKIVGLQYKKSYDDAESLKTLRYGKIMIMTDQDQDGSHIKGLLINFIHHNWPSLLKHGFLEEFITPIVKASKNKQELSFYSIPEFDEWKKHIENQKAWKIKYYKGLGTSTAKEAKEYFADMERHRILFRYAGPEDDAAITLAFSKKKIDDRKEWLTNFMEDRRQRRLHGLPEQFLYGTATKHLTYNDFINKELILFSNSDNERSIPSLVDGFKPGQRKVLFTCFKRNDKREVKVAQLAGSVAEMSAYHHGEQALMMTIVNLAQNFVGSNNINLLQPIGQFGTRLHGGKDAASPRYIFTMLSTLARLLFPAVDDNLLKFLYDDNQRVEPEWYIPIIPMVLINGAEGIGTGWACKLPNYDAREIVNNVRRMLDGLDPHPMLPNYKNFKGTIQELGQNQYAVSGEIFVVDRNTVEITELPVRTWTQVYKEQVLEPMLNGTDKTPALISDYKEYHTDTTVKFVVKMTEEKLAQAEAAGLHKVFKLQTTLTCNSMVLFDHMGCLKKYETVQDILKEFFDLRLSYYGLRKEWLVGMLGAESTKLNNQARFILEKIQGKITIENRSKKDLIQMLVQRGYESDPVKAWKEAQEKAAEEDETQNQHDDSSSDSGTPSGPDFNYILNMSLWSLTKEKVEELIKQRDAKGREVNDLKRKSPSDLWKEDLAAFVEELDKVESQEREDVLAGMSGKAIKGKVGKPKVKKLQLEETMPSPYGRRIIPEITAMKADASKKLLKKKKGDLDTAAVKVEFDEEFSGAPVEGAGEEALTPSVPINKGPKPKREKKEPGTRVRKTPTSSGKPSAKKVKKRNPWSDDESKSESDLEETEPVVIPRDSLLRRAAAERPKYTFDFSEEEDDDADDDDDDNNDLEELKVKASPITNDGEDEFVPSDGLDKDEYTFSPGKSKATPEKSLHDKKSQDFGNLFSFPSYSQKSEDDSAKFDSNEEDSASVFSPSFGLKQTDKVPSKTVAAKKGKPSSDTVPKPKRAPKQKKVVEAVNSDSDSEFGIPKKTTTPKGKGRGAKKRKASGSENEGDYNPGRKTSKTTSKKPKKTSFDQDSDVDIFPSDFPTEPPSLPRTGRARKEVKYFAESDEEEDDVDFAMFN

Data set [2] concerns the target T1, TOP2A. In words: DNA cleavage assay. Type of data set: biochemical. On the set-up: full-length human TOP2A and TOP2B protein (TopoGEN and Inspiralis respectively); purchased TopoGEN TG1001 (human TOP2 assay kit). The note with it: 200 µM, buffer without ATP. Here is the method: as §3
The test system of a further data set is salmon sperm DNA. In words: Ethidium bromide displacement assay. Type of data set: binding. The note with it: increasing doses; 100 µg/ml DNA, 2 µg/ml ethidium bromide. As to the method:
Ethidium bromide displacement assay was performed as previously described ([49], [50]) using Amsacrine (mAMSA) as a positive control. In a 20 µl reaction, compounds were mixed with 100 µg/ml of salmon sperm DNA and 2 µg/ml of ethidium bromide in a fluorescence buffer containing 10 mM HEPES, pH 7.9, 100 mM KCl, 5 mM MgCl2, 0.1 mM EDTA, pH 8.0. Triplicate reactions were subjected to fluorescence emission of 590 nm and excitation of 535 nm. Signals were detected by using the Multimode Microplate Reader, Infinite® F500.

For data set [3], the target named is T1, TOP2A. Kind of data set: DNA relaxation assay (supercoiled pHOT-1 plasmid). Type of data set: biochemical. On the set-up: full-length human TOP2A and TOP2B protein (TopoGEN and Inspiralis respectively); purchased TopoGEN TG1001 (human TOP2 assay kit). The note with it: Figure 3B. Here is the method: as §2
Data set [4] has as its target T1, TOP2A. In words: K-DNA decatenation assay. Particulars: Figure 3A. Type of data set: biochemical. Further details: full-length human TOP2A and TOP2B protein (TopoGEN and Inspiralis respectively); purchased TopoGEN TG1001 (human TOP2 assay kit). As to the method:
as §1

A further data set has as its target TOP2A (431-1193) (Homo sapiens, UniProt P11388 431-1193). In words: EMSA; 30 uM protein, 300 nM DNA, 3 mM Mg2+, no inhibitor; 20 mM HEPES-NaOH pH 7.4, 2 mM DTT, 3 mM MgCl2, 0.05% NP-40, protease inhibitors, 0.1 ug poly[dI:dC] in 20 ul, 30 min at 37 C; 4% native gel in 0.5x TBE. Particulars: protein: recombinant; (NiNTA purified); label: IRDye700; blunt; self-complementary strand, 2 copies. (A gel shift assay detects complexes by their altered migration in electrophoresis.)

In a further data set the target is TOP2B full-length (Homo sapiens, UniProt Q02880 1-1626). In words: EMSA; 2 uM protein, 300 nM DNA, 3 mM Mg2+, no inhibitor; 20 mM HEPES-NaOH pH 7.4, 2 mM DTT, 3 mM MgCl2, 0.05% NP-40, protease inhibitors, 0.1 ug poly[dI:dC] in 20 ul, 30 min at 37 C; 4% native gel in 0.5x TBE. The note with it: protein: commercial; label: IRDye700; blunt; self-complementary strand, 2 copies.
Chain of TOP2B full-length (Q02880 whole entry): as above

The next data set has as its target TOP2A full-length (Homo sapiens, UniProt P11388 1-1531). The data set is described as above. The note with it: protein: commercial; label: IRDye700; blunt; self-complementary strand, 2 copies.

T1 sequence (P11388 whole entry): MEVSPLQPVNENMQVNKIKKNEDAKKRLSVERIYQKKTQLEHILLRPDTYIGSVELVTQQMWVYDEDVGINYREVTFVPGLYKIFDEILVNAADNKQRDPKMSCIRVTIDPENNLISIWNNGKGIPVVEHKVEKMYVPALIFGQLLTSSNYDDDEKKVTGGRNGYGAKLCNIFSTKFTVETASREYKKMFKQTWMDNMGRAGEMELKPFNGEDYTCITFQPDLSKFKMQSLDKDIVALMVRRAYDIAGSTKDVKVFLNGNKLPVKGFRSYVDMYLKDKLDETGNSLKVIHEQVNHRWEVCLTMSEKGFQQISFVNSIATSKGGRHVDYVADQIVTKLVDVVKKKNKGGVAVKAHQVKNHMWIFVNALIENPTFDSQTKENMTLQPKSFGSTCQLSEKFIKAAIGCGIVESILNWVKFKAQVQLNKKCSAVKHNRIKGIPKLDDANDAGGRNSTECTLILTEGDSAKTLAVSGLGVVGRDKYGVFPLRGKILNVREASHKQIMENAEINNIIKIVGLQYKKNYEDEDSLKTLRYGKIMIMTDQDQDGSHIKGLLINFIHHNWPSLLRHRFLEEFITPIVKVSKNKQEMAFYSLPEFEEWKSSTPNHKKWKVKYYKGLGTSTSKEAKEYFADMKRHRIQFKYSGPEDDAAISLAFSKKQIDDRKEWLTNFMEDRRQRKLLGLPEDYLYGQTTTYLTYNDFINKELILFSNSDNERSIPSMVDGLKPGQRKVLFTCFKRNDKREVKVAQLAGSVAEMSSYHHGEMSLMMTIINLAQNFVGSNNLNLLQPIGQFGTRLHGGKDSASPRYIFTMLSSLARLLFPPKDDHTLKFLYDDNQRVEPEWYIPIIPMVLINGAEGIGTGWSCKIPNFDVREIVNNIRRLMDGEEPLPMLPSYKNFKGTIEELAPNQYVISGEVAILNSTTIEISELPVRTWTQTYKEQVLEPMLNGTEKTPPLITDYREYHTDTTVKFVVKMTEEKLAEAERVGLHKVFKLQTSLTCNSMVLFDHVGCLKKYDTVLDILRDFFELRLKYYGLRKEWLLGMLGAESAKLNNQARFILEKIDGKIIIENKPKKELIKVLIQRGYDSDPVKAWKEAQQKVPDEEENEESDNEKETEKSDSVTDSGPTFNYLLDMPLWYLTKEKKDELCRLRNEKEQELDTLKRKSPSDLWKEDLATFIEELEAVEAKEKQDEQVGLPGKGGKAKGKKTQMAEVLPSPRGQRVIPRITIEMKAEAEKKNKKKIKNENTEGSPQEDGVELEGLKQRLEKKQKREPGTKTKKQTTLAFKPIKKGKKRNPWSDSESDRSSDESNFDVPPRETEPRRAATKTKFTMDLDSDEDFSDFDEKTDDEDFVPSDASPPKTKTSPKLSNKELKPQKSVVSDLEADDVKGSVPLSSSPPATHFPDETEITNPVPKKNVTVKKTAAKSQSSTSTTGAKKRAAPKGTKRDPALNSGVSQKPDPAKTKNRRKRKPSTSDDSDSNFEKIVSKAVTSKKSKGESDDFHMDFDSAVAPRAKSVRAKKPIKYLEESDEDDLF
T2 sequence (P11388 431-1193): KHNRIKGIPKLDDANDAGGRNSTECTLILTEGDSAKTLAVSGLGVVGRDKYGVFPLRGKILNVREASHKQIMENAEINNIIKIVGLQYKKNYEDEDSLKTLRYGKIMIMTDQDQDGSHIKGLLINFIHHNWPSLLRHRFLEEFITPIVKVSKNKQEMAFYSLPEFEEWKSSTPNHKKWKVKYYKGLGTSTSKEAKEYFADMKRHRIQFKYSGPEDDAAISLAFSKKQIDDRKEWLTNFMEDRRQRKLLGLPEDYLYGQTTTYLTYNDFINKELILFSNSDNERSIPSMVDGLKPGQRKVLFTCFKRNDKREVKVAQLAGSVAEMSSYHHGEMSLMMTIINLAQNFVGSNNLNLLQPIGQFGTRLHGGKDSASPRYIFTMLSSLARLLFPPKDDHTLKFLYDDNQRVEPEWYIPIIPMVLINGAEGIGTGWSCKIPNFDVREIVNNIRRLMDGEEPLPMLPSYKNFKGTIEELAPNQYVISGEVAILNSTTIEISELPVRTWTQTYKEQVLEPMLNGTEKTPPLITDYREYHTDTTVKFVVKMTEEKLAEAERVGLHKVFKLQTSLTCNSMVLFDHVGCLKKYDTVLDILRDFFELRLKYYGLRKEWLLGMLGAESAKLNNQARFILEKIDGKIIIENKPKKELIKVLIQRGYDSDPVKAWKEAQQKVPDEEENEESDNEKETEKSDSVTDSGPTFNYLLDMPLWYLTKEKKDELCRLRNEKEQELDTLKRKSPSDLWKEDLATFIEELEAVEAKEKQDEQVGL
Chain of TOP2A full-length (P11388 whole entry): as the sequence (P11388 whole entry) above
Chain of TOP2A (431-1193) (P11388 431-1193): as the sequence (P11388 431-1193) above

On to `O=C(Nc1ccc(Nc2ccccc2)cc1)c1ccccc1S` [T609], for which the “Activity on TOP2” value on TOP2A [1] is “most active compound”.
Still for that read-out and setting: to `O=C(Nc1ccc(Nc2ccccc2O)cc1)c1ccc[nH]c1=S` [T620] belongs “increased activity”; to `O=C(Nc1ccc(Nc2ccc(O)cc2)cc1)c1ccc[nH]c1=S` [T625], “increased activity”.
`CN(C(=O)c1ccc[nH]c1=S)c1ccc(Nc2ccccc2)cc1` [T627]: the “Activity on TOP2” value on TOP2A [1] was “complete abolishment of T60 activity”.
The same measure, in the same setting: to `Cc1cc(NC(=O)c2ccc[nH]c2=S)ccc1Nc1ccccc1` [T630] belongs “stronger activities than T60”.
With `Cc1cc(Nc2ccccc2)ccc1NC(=O)c1ccc[nH]c1=S` [T633], the “Tumor growth at the end of two weeks” value in the data set on K562 xenografts was “strongly inhibit tumor growth comparable to etoposide”. Further, on TOP2A [1], the “Activity on TOP2” value is “stronger activities than T60”. Further, the “Hill slope, BLI” value at TOP2A (431–1193) (dose-response 0-50 μM) is recorded as 5±1.5. On TOP2A (431–1193) (dose-response 0-50 μM, estimated), the Kd – broadly, the constant that tells how readily two partners part at equilibrium – was 35 ± 3 µM. Besides, the “Binding to TOP2A (431–1193), BLI curves” value at TOP2A (431–1193) (increasing concentrations) is “reversible and dose-response binding”.
As to `O=C(Nc1ccc(Nc2ccccc2)cc1O)c1ccc[nH]c1=S` [T634], the “Activity on TOP2” value at TOP2A [1] is recorded as “stronger activities than T60”.
The same measure, in the same setting: for `O=C(Nc1ccc(Nc2ccccc2)cc1)c1ccnnc1S` [T635] the value was “nearly inactive”; for `O=C(Nc1ccc(Nc2ccccc2)cc1)c1c[nH]cnc1=S` [T636], “nearly inactive”.
On to `COc1cc([C@@H]2c3cc4c(cc3[C@@H](O[C@@H]3O[C@@H]5CO[C@@H](C)O[C@H]5[C@H](O)[C@H]3O)[C@H]3COC(=O)[C@H]23)OCO4)cc(OC)c1O` [etoposide], for which the “Tumor volumes versus vehicle group at the end of four weeks” value with K562 xenografts is given as “statistically lower than the vehicle group”. For the same molecule, the “Induction of linear plasmid (DNA cleavage) with TOP2B” value at TOP2B is “induced detectable linear plasmid”. The “Induction of linear plasmid (DNA cleavage) with TOP2A” value at TOP2A [2] is given as “induced detectable linear plasmid”.
Take `COc1cc(NS(C)(=O)=O)ccc1Nc1c2ccccc2nc2ccccc12` [m-AMSA, Amsacrine, reference compound]: in the data set with salmon sperm DNA, the “Fluorescence of ethidium bromide/DNA complex (DNA intercalation)” value is “reduced”.
With ICRF193 [reference compound], on TOP2A [3], the “Inhibition of TOP2A activity changing supercoiled into relaxed plasmid DNA” value is reported as “inhibited”. In addition, the “Inhibition of TOP2A mediated K-DNA decatenation” value on TOP2A [4] is on record as “inhibited”.

B1: 5ZRF (dsDNA)
DNA 1: AGCCGAGCTGCAGCTCGGCT
DNA 2: AGCCGAGCTGCAGCTCGGCT
As for B1, the binding result with TOP2A (431-1193), in the data set with TOP2B full-length and in the data set with TOP2A full-length was “binds” throughout.
